Assay results taken from publication PMC3914206.

Legend:
panel of 442 kinases [1] = biological target: T1, panel of 442 kinases (Homo sapiens, UniProt P30530); type: binding; conditions: Compound Concentration 10 µM
T1 construct: purchased KINOMEscan
T1 sequence (P30530 26-894): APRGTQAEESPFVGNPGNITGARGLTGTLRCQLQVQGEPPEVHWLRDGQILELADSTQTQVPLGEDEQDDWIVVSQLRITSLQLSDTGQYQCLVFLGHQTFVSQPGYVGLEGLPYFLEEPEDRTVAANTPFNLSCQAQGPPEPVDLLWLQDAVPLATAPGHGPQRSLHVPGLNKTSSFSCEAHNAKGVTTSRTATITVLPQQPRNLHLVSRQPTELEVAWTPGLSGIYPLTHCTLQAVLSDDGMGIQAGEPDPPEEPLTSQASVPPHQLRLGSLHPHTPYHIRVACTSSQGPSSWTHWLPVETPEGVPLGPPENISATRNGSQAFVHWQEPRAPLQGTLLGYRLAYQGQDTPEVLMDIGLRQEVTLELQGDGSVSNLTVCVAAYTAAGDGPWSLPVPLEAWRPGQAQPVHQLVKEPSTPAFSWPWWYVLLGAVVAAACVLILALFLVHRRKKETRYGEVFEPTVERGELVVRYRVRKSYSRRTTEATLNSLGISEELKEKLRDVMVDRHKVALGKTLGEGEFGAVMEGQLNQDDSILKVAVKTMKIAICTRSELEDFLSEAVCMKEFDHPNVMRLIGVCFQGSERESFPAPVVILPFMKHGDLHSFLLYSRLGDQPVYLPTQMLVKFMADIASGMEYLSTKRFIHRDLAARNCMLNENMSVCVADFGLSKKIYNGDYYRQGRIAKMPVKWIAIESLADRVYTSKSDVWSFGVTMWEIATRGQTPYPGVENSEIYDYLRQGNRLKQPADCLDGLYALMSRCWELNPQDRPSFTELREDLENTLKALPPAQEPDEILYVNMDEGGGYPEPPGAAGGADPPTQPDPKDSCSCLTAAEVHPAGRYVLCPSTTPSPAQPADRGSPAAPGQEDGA
Text: (§1) We assessed the selectivity of members of this scaffold using the KINOMEscan methodology across a near comprehensive panel of 442 kinases [[18,27]].

panel of 442 kinases [2] = biological target: T2, panel of 442 kinases (Homo sapiens, UniProt Q9UPE1); type: binding; conditions: kinase SRPK3; compound concentration 10 µM
T2 construct: purchased KINOMEscan
Text: as §1

T2 sequence (Q9UPE1 whole entry): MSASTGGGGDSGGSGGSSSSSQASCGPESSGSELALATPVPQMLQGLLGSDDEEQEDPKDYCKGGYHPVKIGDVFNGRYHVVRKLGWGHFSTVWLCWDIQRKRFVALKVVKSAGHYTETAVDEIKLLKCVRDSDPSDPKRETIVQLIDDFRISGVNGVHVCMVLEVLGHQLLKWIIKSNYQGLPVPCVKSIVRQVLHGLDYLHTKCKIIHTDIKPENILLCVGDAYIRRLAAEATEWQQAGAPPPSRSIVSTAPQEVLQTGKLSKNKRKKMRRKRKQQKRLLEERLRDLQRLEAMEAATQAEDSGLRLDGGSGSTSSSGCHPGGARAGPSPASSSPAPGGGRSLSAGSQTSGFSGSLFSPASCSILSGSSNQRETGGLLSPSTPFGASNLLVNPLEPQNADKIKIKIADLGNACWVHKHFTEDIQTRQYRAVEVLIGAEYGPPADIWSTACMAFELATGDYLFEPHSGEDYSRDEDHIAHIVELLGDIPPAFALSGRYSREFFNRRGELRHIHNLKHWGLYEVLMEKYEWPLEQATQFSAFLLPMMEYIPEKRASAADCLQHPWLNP

SMILES | KINOMEscan: AXL (panel of 442 kinases [1]) | % Ctrl, SRPK3 (panel of 442 kinases [2])
COc1cc(C(=O)N2CCC(N3CCN(C)CC3)CC2)ccc1Nc1ncc2c(n1)N(C1CCCC1)c1ccccc1C(=O)N2C [Compound 25, 11-cyclopentyl-2-((2-methoxy-4-(4-(4-methylpiperazin-1-yl)piperidine-1-carbonyl)phenyl)amino)-5-methyl-5H-benzo[e]pyrimido[5,4-b][1,4]diazepin-6(11H)-one] | 100 | 91 % Ctrl
CCOc1cc(C(=O)N2CCC(N3CCN(C)CC3)CC2)ccc1Nc1ncc2c(n1)N(C1CCCC1)c1ccccc1C(=O)N2C [Compound 26] | 93 | 100 % Ctrl
COc1cc(C(=O)N2CCC(N3CCN(C)CC3)CC2)ccc1Nc1ncc2c(n1)N1CCc3cccc(c31)C(=O)N2C [Compound 24] |  | 91 % Ctrl
COc1cc(C(=O)N2CCC(N3CCN(C)CC3)CC2)ccc1Nc1ncc2c(n1)N(C)c1ccccc1C(=O)N2C [15 (LRRK2-IN-1)] | 100 | 72 % Ctrl
